{
  "source": "patent US20250352555A1",
  "about": "“METHOD OF INCREASING IMMUNE CELL ACTIVATION AND/OR TREATING CANCER USING DIBENZOXAZEPINONES” (VASCULAR THERAPEUTICS PTY LTD, priority 2022, published 2025)",
  "tested_on": "Jurkat T cells",
  "test": "RNA-seq of Jurkat T cells",
  "assay_type": "cell-based, human",
  "description": "RNA-seq and bioinformatics analysis. Jurkat T cells were grown to confluence in 100 mm plates in complete medium and incubated with 10 μM BT2 or vehicle for 4 h. Total RNA was extracted using the RNeasy Mini Kit (Qiagen, cat. no. 74004) with modification. Briefly, cells were washed twice with pre-cooled 1×PBS and TRIzol reagent (Thermo Fisher Scientific cat. no. 15596026) was added to lyse the cells. Chloroform was added to the mixture before microfuge centrifugation at 13000 rpm for 15 min at 4° C. The upper aqueous layer containing total RNA was transferred to fresh microtubes, and isopropanol was added and loaded into RNeasy columns. Columns were washed with buffers RW1 and RPE. Total RNA was eluted from the column using ribonuclease-free water. Samples were submitted to the UNSW Ramaciotti Centre for Genomics for TruSeq Stranded mRNA-seq preparation and sequencing by One NextSeq 500 1×75 bp high-output flow cell with data output up to 400 M reads. Quality control of samples was set at >80% higher than Q30 at 1×75 bp.\nRNA-seq reads were first assessed for quality using the tool FastQC (v0.11.8) www.bioinformatics.babraham.ac.uk/projects/fastqc/). The tool Salmon was used for quantifying transcript abundance from RNA-seq reads (Patro et al., 2017). The R package DESeq2 that incorporates a method for differential analysis of count data was then used to identify differentially expressed genes across specific comparisons (Love et al., 2014). This package was also used to perform principal component analysis. […] The ggplot2 R package was used to prepare bar plots, scatter plots, and density plots. The pheatmap R package was used to generate distance matrices, and clustered heatmaps. DESeq2 output was used to generate a ranked list for input into GSEA Pre-ranked (v6.0.12, Broad Institute) (Subramanian et al., 2005) for pathway analysis against the Curated (Canonical Pathway), Gene Ontology, and Hallmarks gene collections from MSigDb (Liberzon et al., 2015; Liberzon et al., 2011). Ranked scores were calculated by multiplying the sign of the log 2 fold change by the log 10 transformed adjusted p value. […] All immune response related gene sets were selected for display.\nTo gain insights into BT2's mode of action we conducted next generation RNA sequencing (RNA-seq) with extracts of Jurkat T cells exposed to 10 μM BT2 for 4 h.",
  "note": "Values joined by “and” are separate entries in the source; they are usually repeats but may differ in a detail not shown here. Equal entries are not always repeated.",
  "data": [
    {"smiles": "CCOC(=O)Nc1ccc2c(c1)C(=O)N(CC)c1ccccc1O2", "note": "[BT2, (10-ethyl-11-oxo-10,11-dihydro-dibenzo[b,f][1,4]oxazepin-2-yl)-carbamic acid ethyl ester]", "values": [
      {"measurement": "ABCA4 gene expression, BT2", "setting": "10 μM BT2, 4 h, 3 replicates", "value": "96.05 and 85.74 and 106.5"},
      {"measurement": "ACTA2 gene expression, BT2", "setting": "10 μM BT2, 4 h, 3 replicates", "value": "643.6 and 663.2 and 658.1"},
      {"measurement": "ACTG2 gene expression, BT2", "setting": "10 μM BT2, 4 h, 3 replicates", "value": "3514 and 3448 and 3526"},
      {"measurement": "ADAT3 gene expression, BT2 Test 1-3", "setting": "10 μM BT2, 4 h, 3 replicates", "value": "32.66 and 24.79 and 20.09"},
      {"measurement": "ADCYAP1 gene expression, BT2", "setting": "10 μM BT2, 4 h, 3 replicates", "value": "131.6 and 132.2 and 130.6"},
      {"measurement": "ARHGAP29 gene expression, BT2", "setting": "10 μM BT2, 4 h, 3 replicates", "value": "550.4 and 556.8 and 506.4"},
      {"measurement": "ATF3 gene expression, BT2", "setting": "10 μM BT2, 4 h, 3 replicates", "value": "975.9 and 937 and 1003"},
      {"measurement": "BACH2 gene expression, BT2", "setting": "10 μM BT2, 4 h, 3 replicates", "value": "6174.2608 and 6260 and 6009.3283"},
      {"measurement": "CD248 gene expression, BT2", "setting": "10 μM BT2, 4 h, 3 replicates", "value": "284.3 and 291.3 and 307.4"},
      {"measurement": "CREB5 gene expression, BT2", "setting": "10 μM BT2, 4 h, 3 replicates", "value": "179.6 and 175.6 and 152.7"},
      {"measurement": "DMBT1 gene expression, BT2", "setting": "10 μM BT2, 4 h, 3 replicates", "value": "193.1 and 180.8 and 166.8"},
      {"measurement": "DUSP8 gene expression, BT2", "setting": "10 μM BT2, 4 h, 3 replicates", "value": "826.1 and 821.3 and 847"},
      {"measurement": "ENPP1 gene expression, BT2", "setting": "10 μM BT2, 4 h, 3 replicates", "value": "2289 and 2283 and 2244"},
      {"measurement": "EPAS1 gene expression, BT2", "setting": "10 μM BT2, 4 h, 3 replicates", "value": "332.3 and 428.7 and 372.8"},
      {"measurement": "FAM166A gene expression, BT2 Test 1-3", "setting": "10 μM BT2, 4 h, 3 replicates", "value": "312.2 and 298.5 and 285.3"},
      {"measurement": "FERMT2 gene expression, BT2", "setting": "10 μM BT2, 4 h, 3 replicates", "value": "3161.0909 and 3299 and 3249"},
      {"measurement": "FLNC gene expression, BT2", "setting": "10 μM BT2, 4 h, 3 replicates", "value": "532.1 and 474.2 and 510.4"},
      {"measurement": "GBP1 gene expression, BT2", "setting": "10 μM BT2, 4 h, 3 replicates", "value": "6844 and 6940 and 6949"},
      {"measurement": "GBP2 gene expression, BT2", "setting": "10 μM BT2, 4 h, 3 replicates", "value": "343.9 and 332.6 and 320.5"},
      {"measurement": "HIST1H2AC gene expression, BT2 Test 1-3", "setting": "10 μM BT2, 4 h, 3 replicates", "value": "62.43 and 67.15 and 71.34"},
      {"measurement": "HIST1H2AG gene expression, BT2 Test 1-3", "setting": "10 μM BT2, 4 h, 3 replicates", "value": "51.87 and 40.29 and 74.35"},
      {"measurement": "HIST2H2BE gene expression, BT2 Test 1-3", "setting": "10 μM BT2, 4 h, 3 replicates", "value": "35.54 and 54.75 and 51.24"},
      {"measurement": "IL2RA gene expression, BT2", "setting": "10 μM BT2, 4 h, 3 replicates", "value": "168.1 and 193.2 and 169.8"},
      {"measurement": "JUN gene expression, BT2", "setting": "10 μM BT2, 4 h, 3 replicates", "value": "4079.3537 and 4087 and 4015"},
      {"measurement": "JUND gene expression, BT2", "setting": "10 μM BT2, 4 h, 3 replicates", "value": "7851.3391 and 7882 and 7703"},
      {"measurement": "KCNMB1 gene expression, BT2", "setting": "10 μM BT2, 4 h, 3 replicates", "value": "1036.4075 and 994.8 and 1082"},
      {"measurement": "MAF gene expression, BT2 Test 1-3", "setting": "10 μM BT2, 4 h, 3 replicates", "value": "49.95 and 50.62 and 48.23"},
      {"measurement": "MYL4 gene expression, BT2", "setting": "10 μM BT2, 4 h, 3 replicates", "value": "896.2 and 889.4 and 904.3"},
      {"measurement": "NPAS4 gene expression, BT2", "setting": "10 μM BT2, 4 h, 3 replicates", "value": "228.6 and 253.1 and 292.4"},
      {"measurement": "NTN1 gene expression, BT2", "setting": "10 μM BT2, 4 h, 3 replicates", "value": "0 and 193.2 and 146.7"},
      {"measurement": "PRKCE gene expression, BT2", "setting": "10 μM BT2, 4 h, 3 replicates", "value": "1433 and 1537 and 1488"},
      {"measurement": "PRRT1 gene expression, BT2 Test 1-3", "setting": "10 μM BT2, 4 h, 3 replicates", "value": "20.17 and 22.73 and 60.28"},
      {"measurement": "SIRPB2 gene expression, BT2", "setting": "10 μM BT2, 4 h, 3 replicates", "value": "112.4 and 120.9 and 128.6"},
      {"measurement": "SPECC1L-ADORA2A gene expression, BT2", "setting": "10 μM BT2, 4 h, 3 replicates", "value": "209.4 and 316.1 and 206"},
      {"measurement": "TEAD3 gene expression, BT2", "setting": "10 μM BT2, 4 h, 3 replicates", "value": "269.9 and 243.8 and 226.1"},
      {"measurement": "TIMP3 gene expression, BT2", "setting": "10 μM BT2, 4 h, 3 replicates", "value": "202.7 and 212.8 and 228.1"},
      {"measurement": "TUBA1A gene expression, BT2 Test 1-3", "setting": "10 μM BT2, 4 h, 3 replicates", "value": "4998 and 5147 and 5169"},
      {"measurement": "TUBA1B gene expression, BT2 Test 1-3", "setting": "10 μM BT2, 4 h, 3 replicates", "value": "50484.2833 and 49034.778 and 49379.7789"},
      {"measurement": "TUBA1C gene expression, BT2 Test 1-3", "setting": "10 μM BT2, 4 h, 3 replicates", "value": "9420 and 9004 and 9493"},
      {"measurement": "TUBA4A gene expression, BT2 Test 1-3", "setting": "10 μM BT2, 4 h, 3 replicates", "value": "33.62 and 39.26 and 48.23"},
      {"measurement": "TUBB2A gene expression, BT2 Test 1-3", "setting": "10 μM BT2, 4 h, 3 replicates", "value": "599.4 and 644.6 and 638"},
      {"measurement": "TUBB3 gene expression, BT2 Test 1-3", "setting": "10 μM BT2, 4 h, 3 replicates", "value": "651.2 and 705.6 and 639"},
      {"measurement": "TUBB4B gene expression, BT2 Test 1-3", "setting": "10 μM BT2, 4 h, 3 replicates", "value": "6034 and 5953 and 6048"},
      {"measurement": "ZYX gene expression, BT2", "setting": "10 μM BT2, 4 h, 3 replicates", "value": "3059 and 3209 and 3141"},
      {"measurement": "ABCA4 log2Fold Change", "setting": "10 μM BT2 vs vehicle, 4 h", "value": 2.991},
      {"measurement": "ACTA2 log2Fold Change", "setting": "10 μM BT2 vs vehicle, 4 h", "value": 1.228},
      {"measurement": "ACTG2 log2Fold Change", "setting": "10 μM BT2 vs vehicle, 4 h", "value": 2.581},
      {"measurement": "ADAT3 log2Fold Change", "setting": "10 μM BT2 vs vehicle, 4 h", "value": "−1.31"}
    ]}
  ]
}
